Assay results taken from the OligoGym collection.
Oligonucleotides are given in HELM: sugar(base)linkage, 5' to 3'; d 2'-deoxyribose, r ribose, m 2'-O-methylribose, p phosphate. ss, as = sense and antisense strand

target: TMEM63B; experiment: reporter assay of Huesken 2005; settings: siRNA
Also: test concentration or dose not given here.

Substance	normalised inhibition (eCFP-eYFP dual reporter) [%]
RNA1{r(C)p.r(U)p.r(A)p.r(G)p.r(C)p.r(U)p.r(C)p.r(C)p.r(C)p.r(A)p.r(C)p.r(G)p.r(U)p.r(C)p.r(U)p.r(A)p.r(U)p.r(G)p.r(U)p.d(T)p.d(T)}|RNA2{r(A)p.r(C)p.r(A)p.r(U)p.r(A)p.r(G)p.r(A)p.r(C)p.r(G)p.r(U)p.r(G)p.r(G)p.r(G)p.r(A)p.r(G)p.r(C)p.r(U)p.r(A)p.r(G)p.d(G)p.d(A)}$$$RNA1{StrandType:ss}|RNA2{StrandType:as}$	66.7
RNA1{r(C)p.r(U)p.r(C)p.r(A)p.r(C)p.r(G)p.r(G)p.r(A)p.r(C)p.r(A)p.r(C)p.r(A)p.r(G)p.r(A)p.r(C)p.r(U)p.r(U)p.r(C)p.r(C)p.d(T)p.d(T)}|RNA2{r(G)p.r(G)p.r(A)p.r(A)p.r(G)p.r(U)p.r(C)p.r(U)p.r(G)p.r(U)p.r(G)p.r(U)p.r(C)p.r(C)p.r(G)p.r(U)p.r(G)p.r(A)p.r(G)p.d(G)p.d(G)}$$$RNA1{StrandType:ss}|RNA2{StrandType:as}$	61.7
RNA1{r(C)p.r(U)p.r(C)p.r(C)p.r(G)p.r(U)p.r(U)p.r(G)p.r(A)p.r(C)p.r(U)p.r(U)p.r(U)p.r(G)p.r(A)p.r(C)p.r(C)p.r(A)p.r(A)p.d(T)p.d(T)}|RNA2{r(U)p.r(U)p.r(G)p.r(G)p.r(U)p.r(C)p.r(A)p.r(A)p.r(A)p.r(G)p.r(U)p.r(C)p.r(A)p.r(A)p.r(C)p.r(G)p.r(G)p.r(A)p.r(G)p.d(C)p.d(T)}$$$RNA1{StrandType:ss}|RNA2{StrandType:as}$	98.6
RNA1{r(C)p.r(U)p.r(C)p.r(C)p.r(U)p.r(C)p.r(U)p.r(U)p.r(C)p.r(U)p.r(U)p.r(C)p.r(C)p.r(U)p.r(C)p.r(A)p.r(C)p.r(C)p.r(A)p.d(T)p.d(T)}|RNA2{r(U)p.r(G)p.r(G)p.r(U)p.r(G)p.r(A)p.r(G)p.r(G)p.r(A)p.r(A)p.r(G)p.r(A)p.r(A)p.r(G)p.r(A)p.r(G)p.r(G)p.r(A)p.r(G)p.d(G)p.d(A)}$$$RNA1{StrandType:ss}|RNA2{StrandType:as}$	68
RNA1{r(C)p.r(U)p.r(C)p.r(U)p.r(A)p.r(C)p.r(U)p.r(A)p.r(C)p.r(G)p.r(C)p.r(C)p.r(U)p.r(A)p.r(C)p.r(C)p.r(U)p.r(G)p.r(C)p.d(T)p.d(T)}|RNA2{r(G)p.r(C)p.r(A)p.r(G)p.r(G)p.r(U)p.r(A)p.r(G)p.r(G)p.r(C)p.r(G)p.r(U)p.r(A)p.r(G)p.r(U)p.r(A)p.r(G)p.r(A)p.r(G)p.d(A)p.d(T)}$$$RNA1{StrandType:ss}|RNA2{StrandType:as}$	56.4
RNA1{r(C)p.r(U)p.r(C)p.r(U)p.r(C)p.r(C)p.r(G)p.r(U)p.r(A)p.r(G)p.r(G)p.r(C)p.r(A)p.r(U)p.r(C)p.r(G)p.r(U)p.r(G)p.r(C)p.d(T)p.d(T)}|RNA2{r(G)p.r(C)p.r(A)p.r(C)p.r(G)p.r(A)p.r(U)p.r(G)p.r(C)p.r(C)p.r(U)p.r(A)p.r(C)p.r(G)p.r(G)p.r(A)p.r(G)p.r(A)p.r(G)p.d(G)p.d(A)}$$$RNA1{StrandType:ss}|RNA2{StrandType:as}$	75.8
RNA1{r(C)p.r(U)p.r(G)p.r(C)p.r(C)p.r(G)p.r(G)p.r(C)p.r(C)p.r(A)p.r(A)p.r(G)p.r(C)p.r(U)p.r(G)p.r(G)p.r(A)p.r(C)p.r(A)p.d(T)p.d(T)}|RNA2{r(U)p.r(G)p.r(U)p.r(C)p.r(C)p.r(A)p.r(G)p.r(C)p.r(U)p.r(U)p.r(G)p.r(G)p.r(C)p.r(C)p.r(G)p.r(G)p.r(C)p.r(A)p.r(G)p.d(G)p.d(T)}$$$RNA1{StrandType:ss}|RNA2{StrandType:as}$	65.2
RNA1{r(C)p.r(U)p.r(G)p.r(C)p.r(G)p.r(C)p.r(U)p.r(G)p.r(C)p.r(C)p.r(U)p.r(G)p.r(G)p.r(U)p.r(C)p.r(A)p.r(U)p.r(C)p.r(A)p.d(T)p.d(T)}|RNA2{r(U)p.r(G)p.r(A)p.r(U)p.r(G)p.r(A)p.r(C)p.r(C)p.r(A)p.r(G)p.r(G)p.r(C)p.r(A)p.r(G)p.r(C)p.r(G)p.r(C)p.r(A)p.r(G)p.d(C)p.d(C)}$$$RNA1{StrandType:ss}|RNA2{StrandType:as}$	66.1
RNA1{r(C)p.r(U)p.r(G)p.r(C)p.r(U)p.r(C)p.r(A)p.r(U)p.r(G)p.r(U)p.r(A)p.r(C)p.r(A)p.r(U)p.r(G)p.r(A)p.r(U)p.r(C)p.r(C)p.d(T)p.d(T)}|RNA2{r(G)p.r(G)p.r(A)p.r(U)p.r(C)p.r(A)p.r(U)p.r(G)p.r(U)p.r(A)p.r(C)p.r(A)p.r(U)p.r(G)p.r(A)p.r(G)p.r(C)p.r(A)p.r(G)p.d(G)p.d(C)}$$$RNA1{StrandType:ss}|RNA2{StrandType:as}$	49
RNA1{r(C)p.r(U)p.r(G)p.r(C)p.r(U)p.r(G)p.r(A)p.r(A)p.r(G)p.r(C)p.r(A)p.r(C)p.r(C)p.r(U)p.r(G)p.r(G)p.r(U)p.r(A)p.r(G)p.d(T)p.d(T)}|RNA2{r(C)p.r(U)p.r(A)p.r(C)p.r(C)p.r(A)p.r(G)p.r(G)p.r(U)p.r(G)p.r(C)p.r(U)p.r(U)p.r(C)p.r(A)p.r(G)p.r(C)p.r(A)p.r(G)p.d(C)p.d(A)}$$$RNA1{StrandType:ss}|RNA2{StrandType:as}$	75
RNA1{r(C)p.r(U)p.r(G)p.r(G)p.r(U)p.r(C)p.r(A)p.r(U)p.r(C)p.r(A)p.r(C)p.r(C)p.r(A)p.r(U)p.r(C)p.r(G)p.r(U)p.r(C)p.r(A)p.d(T)p.d(T)}|RNA2{r(U)p.r(G)p.r(A)p.r(C)p.r(G)p.r(A)p.r(U)p.r(G)p.r(G)p.r(U)p.r(G)p.r(A)p.r(U)p.r(G)p.r(A)p.r(C)p.r(C)p.r(A)p.r(G)p.d(G)p.d(A)}$$$RNA1{StrandType:ss}|RNA2{StrandType:as}$	67
RNA1{r(C)p.r(U)p.r(G)p.r(U)p.r(A)p.r(C)p.r(U)p.r(U)p.r(C)p.r(A)p.r(C)p.r(A)p.r(A)p.r(A)p.r(C)p.r(C)p.r(U)p.r(C)p.r(C)p.d(T)p.d(T)}|RNA2{r(G)p.r(G)p.r(A)p.r(G)p.r(G)p.r(U)p.r(U)p.r(U)p.r(G)p.r(U)p.r(G)p.r(A)p.r(A)p.r(G)p.r(U)p.r(A)p.r(C)p.r(A)p.r(G)p.d(C)p.d(T)}$$$RNA1{StrandType:ss}|RNA2{StrandType:as}$	57.4
RNA1{r(C)p.r(U)p.r(G)p.r(U)p.r(G)p.r(G)p.r(A)p.r(C)p.r(C)p.r(C)p.r(C)p.r(A)p.r(G)p.r(A)p.r(A)p.r(G)p.r(C)p.r(A)p.r(A)p.d(T)p.d(T)}|RNA2{r(U)p.r(U)p.r(G)p.r(C)p.r(U)p.r(U)p.r(C)p.r(U)p.r(G)p.r(G)p.r(G)p.r(G)p.r(U)p.r(C)p.r(C)p.r(A)p.r(C)p.r(A)p.r(G)p.d(T)p.d(A)}$$$RNA1{StrandType:ss}|RNA2{StrandType:as}$	75.4
RNA1{r(C)p.r(U)p.r(U)p.r(C)p.r(C)p.r(U)p.r(G)p.r(U)p.r(A)p.r(U)p.r(C)p.r(U)p.r(G)p.r(C)p.r(U)p.r(G)p.r(C)p.r(U)p.r(C)p.d(T)p.d(T)}|RNA2{r(G)p.r(A)p.r(G)p.r(C)p.r(A)p.r(G)p.r(C)p.r(A)p.r(G)p.r(A)p.r(U)p.r(A)p.r(C)p.r(A)p.r(G)p.r(G)p.r(A)p.r(A)p.r(G)p.d(G)p.d(C)}$$$RNA1{StrandType:ss}|RNA2{StrandType:as}$	75.8
RNA1{r(C)p.r(U)p.r(U)p.r(C)p.r(U)p.r(U)p.r(U)p.r(U)p.r(C)p.r(C)p.r(A)p.r(C)p.r(C)p.r(A)p.r(U)p.r(G)p.r(C)p.r(G)p.r(C)p.d(T)p.d(T)}|RNA2{r(G)p.r(C)p.r(G)p.r(C)p.r(A)p.r(U)p.r(G)p.r(G)p.r(U)p.r(G)p.r(G)p.r(A)p.r(A)p.r(A)p.r(A)p.r(G)p.r(A)p.r(A)p.r(G)p.d(A)p.d(G)}$$$RNA1{StrandType:ss}|RNA2{StrandType:as}$	39.7
RNA1{r(C)p.r(U)p.r(U)p.r(G)p.r(A)p.r(A)p.r(A)p.r(U)p.r(C)p.r(A)p.r(G)p.r(G)p.r(G)p.r(A)p.r(A)p.r(C)p.r(A)p.r(A)p.r(C)p.d(T)p.d(T)}|RNA2{r(G)p.r(U)p.r(U)p.r(G)p.r(U)p.r(U)p.r(C)p.r(C)p.r(C)p.r(U)p.r(G)p.r(A)p.r(U)p.r(U)p.r(U)p.r(C)p.r(A)p.r(A)p.r(G)p.d(T)p.d(T)}$$$RNA1{StrandType:ss}|RNA2{StrandType:as}$	71.1
RNA1{r(C)p.r(U)p.r(U)p.r(U)p.r(C)p.r(C)p.r(U)p.r(C)p.r(A)p.r(U)p.r(C)p.r(U)p.r(U)p.r(C)p.r(A)p.r(U)p.r(G)p.r(G)p.r(U)p.d(T)p.d(T)}|RNA2{r(A)p.r(C)p.r(C)p.r(A)p.r(U)p.r(G)p.r(A)p.r(A)p.r(G)p.r(A)p.r(U)p.r(G)p.r(A)p.r(G)p.r(G)p.r(A)p.r(A)p.r(A)p.r(G)p.d(T)p.d(G)}$$$RNA1{StrandType:ss}|RNA2{StrandType:as}$	72.7
RNA1{r(C)p.r(U)p.r(U)p.r(U)p.r(U)p.r(C)p.r(C)p.r(A)p.r(C)p.r(C)p.r(A)p.r(U)p.r(G)p.r(C)p.r(G)p.r(C)p.r(A)p.r(C)p.r(G)p.d(T)p.d(T)}|RNA2{r(C)p.r(G)p.r(U)p.r(G)p.r(C)p.r(G)p.r(C)p.r(A)p.r(U)p.r(G)p.r(G)p.r(U)p.r(G)p.r(G)p.r(A)p.r(A)p.r(A)p.r(A)p.r(G)p.d(A)p.d(A)}$$$RNA1{StrandType:ss}|RNA2{StrandType:as}$	0
RNA1{r(G)p.r(A)p.r(C)p.r(C)p.r(G)p.r(G)p.r(U)p.r(A)p.r(U)p.r(G)p.r(A)p.r(G)p.r(C)p.r(G)p.r(U)p.r(C)p.r(U)p.r(C)p.r(A)p.d(T)p.d(T)}|RNA2{r(U)p.r(G)p.r(A)p.r(G)p.r(A)p.r(C)p.r(G)p.r(C)p.r(U)p.r(C)p.r(A)p.r(U)p.r(A)p.r(C)p.r(C)p.r(G)p.r(G)p.r(U)p.r(C)p.d(A)p.d(T)}$$$RNA1{StrandType:ss}|RNA2{StrandType:as}$	99
RNA1{r(G)p.r(A)p.r(C)p.r(U)p.r(U)p.r(C)p.r(A)p.r(A)p.r(C)p.r(G)p.r(U)p.r(G)p.r(U)p.r(G)p.r(U)p.r(A)p.r(A)p.r(A)p.r(U)p.d(T)p.d(T)}|RNA2{r(A)p.r(U)p.r(U)p.r(U)p.r(A)p.r(C)p.r(A)p.r(C)p.r(A)p.r(C)p.r(G)p.r(U)p.r(U)p.r(G)p.r(A)p.r(A)p.r(G)p.r(U)p.r(C)p.d(C)p.d(T)}$$$RNA1{StrandType:ss}|RNA2{StrandType:as}$	102
